Earlier results, collected in PubChem BioAssay AID1259410 (Chemical Carcinogenesis Research Information System (CCRIS), 2018).

Test system: rodent tumor promotion studies, tumor incidence
Test: CCRIS tumor promotion studies

CCCCCCCCCCCCCC(=O)O[C@@H]1[C@@H](C)[C@@]2(O)[C@@H](C=C(CO)C[C@]3(O)C(=O)C(C)=C[C@@H]23)[C@@H]2C(C)(C)[C@]12OC(C)=O
outcome (Carcinogen: 7,12-DIMETHYLBENZ(A)ANTHRACENE, Doses [Carcinogen]: IG TO MOTHERS, Route [Carcinogen]: GAVAGE, Route [Promoter]: DERMAL, Species: MOUSE, Strain/Sex: NMRI/MALE,FEMALE): integumentary system (skin); forestomach; stomach; liver; lung; colon; kidney; r
outcome (Carcinogen: 7,12-DIMETHYLBENZ(A)ANTHRACENE, Doses [Carcinogen]: IG, Route [Carcinogen]: GAVAGE, Route [Promoter]: GAVAGE, Species: MOUSE, Strain/Sex: FEMALE): forestomach
outcome (Carcinogen: 7,12-DIMETHYLBENZ(A)ANTHRACENE, Doses [Carcinogen]: TOP, Route [Carcinogen]: DERMAL, Route [Promoter]: DERMAL, Species: MOUSE, Strain/Sex: MALE,FEMALE): integumentary system (skin)
outcome (Carcinogen: 7,12-DIMETHYLBENZ(A)ANTHRACENE, Doses [Carcinogen]: TRANS-PLACENTAL, Route [Carcinogen]: TRANS-PLACENTAL, Route [Promoter]: DERMAL, Species: MOUSE, Strain/Sex: NMRI/MALE,FEMALE): integumentary system (skin); lung; liver
outcome (Carcinogen: 7,12-DIMETHYLBENZO[K]FLUORANTHENE, 95741-56-3, Doses [Carcinogen]: 4 UMOL (TOTAL DOSE) ADMINISTERED IN 10 SUBDOSES 1/2 D, Doses [Promoter]: 2.5 UG IN 0.1 ML ACETONE 3/WK FOR 30 WK BEGINNING 10 D POST CARCINOGEN TREATMENT (STUDY DURATION: 33 WK), Route [Carcinogen]: DERMAL, Route [Promoter]: DERMAL, Species: MOUSE, Strain/Sex: CRL:CD-1/FEMALE): skin: tumor
outcome (Carcinogen: 7,12-DIMETHYLBENZ[A]ANTHRACENE-3,4-DIOL, 71964-72-2, Doses [Carcinogen]: 4, 10 NMOL ONCE, Doses [Promoter]: 0, 3.4 NMOL 2/WK FOR 19 WK BEGINNING 2 WK POST CARCINOGEN DOSE (STUDY DURATION: 21 WK), Route [Carcinogen]: DERMAL, Route [Promoter]: DERMAL, Species: MOUSE, Strain/Sex: SENCAR/FEMALE): skin: papilloma
outcome (Carcinogen: 7,12-DIMETHYLBENZ[A]ANTHRACENE, 57-97-6, Doses [Carcinogen]: 1 NMOL IN 100 µL ACETONE, Doses [Promoter]: 2.16 NMOL IN 100 µL ACETONE 2/WK FOR 27 WK BEGINNING 1 WK POST CARCINOGEN DOSE (STUDY DURATION: 28 WK), Route [Carcinogen]: DERMAL, Route [Promoter]: DERMAL, Species: MOUSE, Strain/Sex: SENCAR/FEMALE): skin: tumor
outcome (Carcinogen: 7,12-DIMETHYLBENZ[A]ANTHRACENE, 57-97-6, Doses [Carcinogen]: 4, 20, 100 NMOL IN 100 µL ACETONE ONCE, Doses [Carcinogen]: 4, 20, 100 NMOL IN 100 µL ACETONE ONCE, Doses [Promoter]: 3.24 NMOL/100 µL ACETONE 2/WK BEGINNING 2 WK POST CARCINOGEN DOSE AND CONTINUING FOR 24 WK (STUDY DURATION: 27 WK), Route [Carcinogen]: DERMAL, Route [Promoter]: DERMAL, Species: MOUSE, Strain/Sex: SENCAR/FEMALE): skin: tumor
outcome (Carcinogen: 7,12-DIMETHYLBENZ[A]ANTHRACENE, 57-97-6, Doses [Carcinogen]: 10 NMOL APPLIED TO BACK ONCE, Doses [Promoter]: 1.5 NMOL 2/WK FOR 19 WK BEGINNING 1 WK POST CARCINOGEN DOSE (STUDY DURATION: 40 WK), Route [Carcinogen]: DERMAL, Route [Promoter]: DERMAL, Species: MOUSE, Strain/Sex: HRA/SKH/FEMALE): skin: papilloma
outcome (Carcinogen: 7,12-DIMETHYLBENZ[A]ANTHRACENE, 57-97-6, Doses [Carcinogen]: 20 NMOL IN ACETONE ONCE, Doses [Promoter]: 0, 0.2 ML OF 10 UG/ML SOLUTION IN ACETONE 2/WK FOR 51 WK (STUDY DURATION: 52 WK), Route [Carcinogen]: DERMAL, Route [Promoter]: DERMAL, Species: MOUSE, Strain/Sex: SENCAR/FEMALE): skin: squamous cell carcinoma
outcome (Carcinogen: 7,12-DIMETHYLBENZ[A]ANTHRACENE, 57-97-6, Doses [Carcinogen]: 20 NMOL ONCE, Doses [Promoter]: 0, 1, 2, 5 UG IN 200 µL ACETONE 2/WK FOR 23 WK BEGINNING 1 WK POST CARCINOGEN DOSE (STUDY DURATION: 24 WK), Doses [Promoter]: 0, 1, 2, 5 UG IN 200 µL ACETONE 2/WK FOR 23 WK BEGINNING 1 WK POST CARCINOGEN DOSE (STUDY DURATION: 24 WK), Route [Carcinogen]: DERMAL, Route [Promoter]: DERMAL, Species: MOUSE, Strain/Sex: 129/SVEV/FEMALE): skin: tumor
outcome (Carcinogen: 7,12-DIMETHYLBENZ[A]ANTHRACENE, 57-97-6, Doses [Carcinogen]: 100 NMOL ONCE, Doses [Promoter]: 0, 1, 2, 5 UG IN 200 µL ACETONE 2/WK FOR 23 WK BEGINNING 1 WK POST CARCINOGEN DOSE (STUDY DURATION: 24 WK), Doses [Promoter]: 0, 1, 2, 5 UG IN 200 µL ACETONE 2/WK FOR 23 WK BEGINNING 1 WK POST CARCINOGEN DOSE (STUDY DURATION: 24 WK), Route [Carcinogen]: DERMAL, Route [Promoter]: DERMAL, Species: MOUSE, Strain/Sex: 129/SVEV/FEMALE): skin: tumor
outcome (Carcinogen: 7,12-DIMETHYLBENZ[A]ANTHRACENE, 57-97-6, Doses [Carcinogen]: 100 NMOL ONCE, Doses [Promoter]: 10 NMOL 2/WK FOR 24 WK BEGINNING 1 WK POST CARCINOGEN DOSE (STUDY DURATION: 25 WK), Route [Carcinogen]: DERMAL, Route [Promoter]: DERMAL, Species: NMRI/FEMALE G, Strain/Sex: NMRI/FEMALE): skin: tumor
outcome (Carcinogen: 7,12-DIMETHYLBENZ[A]ANTHRACENE, 57-97-6, Doses [Carcinogen]: 200 NMOL IN 100 µL ACETONE ONCE, Doses [Promoter]: 0, 5 NMOL IN 100 µL ACETONE 2/WK FOR 20 WK BEGINNING 1 WK POST CARCINOGEN DOSE (STUDY DURATION: 21 WK), Route [Carcinogen]: DERMAL, Route [Promoter]: DERMAL, Species: MOUSE, Strain/Sex: CD-1/FEMALE): skin: papilloma
outcome (Carcinogen: 7-FLUOROBENZO[B]FLUORANTHENE, 89883-22-7, Doses [Carcinogen]: 10, 40, 120, 400 NMOL (TOTAL DOSE) APPLIED 1/2 D FOR 10 SUBDOSES, Doses [Carcinogen]: 10, 40, 120, 400 NMOL (TOTAL DOSE) APPLIED 1/2 D FOR 10 SUBDOSES, Doses [Promoter]: 0, 2.5 UG IN 100 µL ACETONE 3/WK FOR 20 WK BEGINNING 10 D POST CARCINOGEN TREATMENT (STUDY DURATION: 22 WK), Route [Carcinogen]: DERMAL, Route [Promoter]: DERMAL, Species: MOUSE, Strain/Sex: CRL:CD-1/FEMALE): skin: tumor
outcome (Carcinogen: 7-METHYLBENZ[A]ANTHRACENE-3,4-DIOL, 175614-82-1, Doses [Carcinogen]: 200, 400 NMOL ONCE, Doses [Promoter]: 0, 3.4 NMOL 2/WK FOR 19 WK BEGINNING 2 WK POST CARCINOGEN DOSE (STUDY DURATION: 21 WK), Route [Carcinogen]: DERMAL, Route [Promoter]: DERMAL, Species: MOUSE, Strain/Sex: SENCAR/FEMALE): skin: papilloma
outcome (Carcinogen: 8-METHYLBENZO[K]FLUORANTHENE, 95741-54-1, Doses [Carcinogen]: 4 UMOL (TOTAL DOSE) ADMINISTERED IN 10 SUBDOSES 1/2 D, Doses [Promoter]: 2.5 UG IN 0.1 ML ACETONE 3/WK FOR 30 WK BEGINNING 10 D POST CARCINOGEN TREATMENT (STUDY DURATION: 33 WK), Route [Carcinogen]: DERMAL, Route [Promoter]: DERMAL, Species: MOUSE, Strain/Sex: CRL:CD-1/FEMALE): skin: tumor
outcome (Carcinogen: 9-FLUORO-7,12-DIMETHYLBENZ[A]ANTHRACENE-3,4-DIOL, 175614-88-7, Doses [Carcinogen]: 4, 10 NMOL ONCE, Doses [Promoter]: 0, 3.4 NMOL 2/WK FOR 19 WK BEGINNING 2 WK POST CARCINOGEN DOSE (STUDY DURATION: 21 WK), Route [Carcinogen]: DERMAL, Route [Promoter]: DERMAL, Species: MOUSE, Strain/Sex: SENCAR/FEMALE): skin: papilloma
outcome (Carcinogen: 9-FLUORO-7-METHYLBENZ[A]ANTHRACENE-3,4-DIOL, 175614-83-2, Doses [Carcinogen]: 200, 400 NMOL ONCE, Doses [Promoter]: 0, 3.4 NMOL 2/WK FOR 19 WK BEGINNING 2 WK POST CARCINOGEN DOSE (STUDY DURATION: 21 WK), Route [Carcinogen]: DERMAL, Route [Promoter]: DERMAL, Species: MOUSE, Strain/Sex: SENCAR/FEMALE): skin: papilloma
outcome (Carcinogen: 9-FLUORO-12-METHYLBENZ[A]ANTHRACENE-3,4-DIOL, 175614-86-5, Doses [Carcinogen]: 200, 400 NMOL ONCE, Doses [Promoter]: 0, 3.4 NMOL 2/WK FOR 19 WK BEGINNING 2 WK POST CARCINOGEN DOSE (STUDY DURATION: 21 WK), Route [Carcinogen]: DERMAL, Route [Promoter]: DERMAL, Species: MOUSE, Strain/Sex: SENCAR/FEMALE): skin: papilloma
outcome (Carcinogen: 9-METHYLBENZO[K]FLUORANTHENE, 95741-55-2, Doses [Carcinogen]: 4 UMOL (TOTAL DOSE) ADMINISTERED IN 10 SUBDOSES 1/2 D, Doses [Promoter]: 2.5 UG IN 0.1 ML ACETONE 3/WK FOR 30 WK BEGINNING 10 D POST CARCINOGEN TREATMENT (STUDY DURATION: 33 WK), Route [Carcinogen]: DERMAL, Route [Promoter]: DERMAL, Species: MOUSE, Strain/Sex: CRL:CD-1/FEMALE): skin: tumor
outcome (Carcinogen: 10-FLUORO-7,12-DIMETHYLBENZ[A]ANTHRACENE-3,4-DIOL, 175614-89-8, Doses [Carcinogen]: 4, 10 NMOL ONCE, Doses [Promoter]: 0, 3.4 NMOL 2/WK FOR 19 WK BEGINNING 2 WK POST CARCINOGEN DOSE (STUDY DURATION: 21 WK), Route [Carcinogen]: DERMAL, Route [Promoter]: DERMAL, Species: MOUSE, Strain/Sex: SENCAR/FEMALE): skin: papilloma
outcome (Carcinogen: 10-FLUORO-7-METHYLBENZ[A]ANTHRACENE-3,4-DIOL, 175614-84-3, Doses [Carcinogen]: 200, 400 NMOL ONCE, Doses [Promoter]: 0, 3.4 NMOL 2/WK FOR 19 WK BEGINNING 2 WK POST CARCINOGEN DOSE (STUDY DURATION: 21 WK), Route [Carcinogen]: DERMAL, Route [Promoter]: DERMAL, Species: MOUSE, Strain/Sex: SENCAR/FEMALE): skin: papilloma
outcome (Carcinogen: 10-FLUORO-12-METHYLBENZ[A]ANTHRACENE-3,4-DIOL, 175614-87-6, Doses [Carcinogen]: 200, 400 NMOL ONCE, Doses [Promoter]: 0, 3.4 NMOL 2/WK FOR 19 WK BEGINNING 2 WK POST CARCINOGEN DOSE (STUDY DURATION: 21 WK), Route [Carcinogen]: DERMAL, Route [Promoter]: DERMAL, Species: MOUSE, Strain/Sex: SENCAR/FEMALE): skin: papilloma
outcome (Carcinogen: 10-FLUOROBENZO[J]FLUORANTHENE, 129286-37-9, Doses [Carcinogen]: 1, 2 UMOL (TOTAL DOSE) ADMINISTERED IN SUBDOSES 1/2 D, Doses [Promoter]: 2.5 UG IN 100 µL ACETONE 3/WK FOR 20 WK BEGINNING 10 D POST LAST CARCINOGEN DOSE (STUDY DURATION: 27 WK), Route [Carcinogen]: DERMAL, Route [Promoter]: DERMAL, Species: MOUSE, Strain/Sex: CD-1/FEMALE): skin: tumor
outcome (Carcinogen: 12-METHYLBENZ[A]ANTHRACENE-3,4-DIOL, 175614-85-4, Doses [Carcinogen]: 200, 400 NMOL ONCE, Doses [Promoter]: 0, 3.4 NMOL 2/WK FOR 19 WK BEGINNING 2 WK POST CARCINOGEN DOSE (STUDY DURATION: 21 WK), Route [Carcinogen]: DERMAL, Route [Promoter]: DERMAL, Species: MOUSE, Strain/Sex: SENCAR/FEMALE): skin: papilloma
